In US4443448A, “Indane derivatives, pharmaceutical compositions thereof and method of preparation” (priority 1980, dated 1984):

Tests used:
[1] = Pharmacological animal tests, general statements on activity; conditions: in vivo
Description: After recrystallisation from 500 milliliters of methanol 18.5 grams of the (-)-isomer of Lu 13-092, D-(-)-tartrate were obtained, melting at 207°-209° C. […] The novel indanes of Formula I were tested pharmacologically in standard and reliable animal tests.

[2] = Mouse grid shock (analgesia); type: in vivo; conditions: mice, minimal effective dose, in mg/kg
In short: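 Mice (five per dose) on an electrified grid received 20 cycles/s, 5 msec square-wave pulses of rising current until they squeaked, giving the pain threshold in mA. Results are % increase over the pre-dose value, or an MED by van der Waerden X-test.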

methylphenidate = assay: Methylphenidate antagonism in mice; type: in vivo; conditions: Mus musculus, ip, 2 h, read-out: MePh antag. ED50 2 hr i.p., mice, test substance i.p., 2 hr before methylphenidate 60 mg/kg s.c.
In short: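 Test substance given i.p. 2 or 24 h before methylphenidate 60 mg/kg s.c.; mice observed in pairs for 1 h on corrugated paper for biting. Three pairs per dose, scored as fraction of pairs not biting; ED50 in mg/kg.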

in vivo [3] = assay: in vivo; parameters: species or system rats
In short: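 Oral dosing at 4 fixed-scale levels, five animals per group. Rats were placed on a vertical 1 cm-mesh wire netting at 60, 120, 180, 240, 300 and 360 min post-dose. Immobility for 15 s scored cataleptic; sliding passively or climbing scored non-cataleptic.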

in vivo [4] = conditions: iv
amphetamine = assay: Amphetamine antagonism in rats; type: in vivo; conditions: Rattus norvegicus, po, rats, p.o., amphetamine 10 mg/kg base i.v.; read-out: Amphetamine antag. ED50 p.o.
In short: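 Rats dosed p.o. with test substance, then 2 or 24 h later given amphetamine sulphate 13.6 mg/kg (10 mg/kg base) i.v.; five rats per dose. Stereotypy (head movements, compulsive gnawing) scored for 1 min at 55 and 65 min; fraction of rats without stereotypy used to derive ED50 in mg/kg.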

For `CN1CCN([C@@H]2C[C@@H](c3ccc(F)cc3)c3ccc(F)cc32)CC1` (relative stereo) [Lu 13-092, trans-1-methyl-4-(3-(4'-fluorophenyl)-6-fluoro-1-indanyl)piperazine], the “neuroleptic activity” value [1] was “the neuroleptic active isomer is the trans-isomer”, the “MED Grid Shock” value [2] was 1.3 and the ED50 (methylphenidate) was 4.2 mg/kg. The “Ratio catalep./Amphet.” value (in vivo [3]; catalepsy ED50 / amphetamine antagonism ED50) was 5.5, the ED50 (in vivo [3]; rat, in vivo, po, rats, p.o., strongest effect within first 6 hours, read-out: Catalep. (catalepsy wire mesh, rat, max, ED50)) was 81 mg/kg and the LD50 (in vivo [4]) was 80 mg/kg. The ED50 (amphetamine) was 14.8 mg/kg.
